According to publication PMC9190144, “Phytochemistry, anti-diabetic and antioxidant potentials of Allium consanguineum Kunth” (BMC Complementary Medicine and Therapies, 2022):
Several values for one entry are separate records, joined by “and”; a condition that tells them apart may be missing. Identical values can stand only once.

Experiments:
α-amylase = test: In-vitro α-amylase inhibition assay; assay type: biochemical; details: for Percent Inhibition (mean ± SEM): crude extract/solvent fractions series; for Alpha amylase Percent Inhibition (mean ± SEM): semi-purified fractions/isolated compounds series
Description: The Bernfeld’s procedure was used to investigate in-vitro amylase inhibition. […] Ten minutes after incubation period, […] of 1% starch solution were applied to initiate the reaction and then incubated for 30 minutes at 37 °C. Then 20 μl of 1 M HCl and 75 μl of iodine solution were added to the 96 well plate, the absorbance of the solution was measured at 580 nm and inhibitory response of the -amylase enzyme was calculated using the following formula. Inhibition%=100control-test/control
(§1) The IC50s were determined using the same approach in free radical assays such as DPPH, ABTS, and H2O2.

α-glucosidase = α-glucosidase (Saccharomyces cerevisiae, UniProt P53341); assay type: biochemical
Description: For the example planning initial 1200 μL of phosphate buffer put in test tube and included 100 μl of each concentrate which sequential weakened going from 9, 7, and 5 mg/ml. 200 μl of glycosidase (0.5 mg/11 ml refined H2O) was added to the test tube in addition to 0.2 ml of substrate arrangement (glucopyranoside 15 mg/10 ml refined water) was kept at 37 °C for 20 minutes.
For control, 1.2 ml of PO4 (phosphate buffer) was added to the test tube and furthermore included 200 μl catalyst arrangement and 200 μl of substrate arrangement (C7H14O6 (glucopyranoside) 15 mg/10 ml refined water) just as included 800 μl of Na2CO3 arrangement and was maintained for 20 minutes at 37 °C [32]. The retention of control and test was examined at 4.05e-7 m using the accompanying equation after the recommended time: %Inhibition=absorbanceofControl-absorbanceofSample/absorbanceofControl×100
as §1

[1] = H2O2 free radicals scavenging assay; assay type: biochemical
Description: The hydrogen peroxide antioxidant activity of test samples was evaluated by using protocol described. […] It was […] 0.6 mL hydrogen peroxide solution was applied to it. The absorbance of each plant sample was measured at 230 nm against the blank after 10 minutes. […] Hydrogenperoxidescavengingactivity=1-[…]×100 […]

[2] = ABTS free radicals scavenging assay; assay type: biochemical
Description: The ABTS analysis of plant’s samples was performed by standard systems. […] After amassing of the two solutions, they were saved in a hatchery at 30 °C for 15 m. The absorbance of the subsequent solution was estimated at 745 nm with photo-spectrometer again. Various weakening of ascorbic corrosive was then set up as certain controls as per a similar technique. The ABTS free extreme screening was examined by the accompanying recipe. Formula: %scavengingactivity=A-B/AX100 A used for the control while B represents sample absorbance.

DPPH antioxidant assay = assay type: biochemical; details: for DPPH Percent Scavenging / Percent Inhibition (mean ± SEM): semi-purified fractions/isolated compounds series
Description: For DPPH stock arrangement, […] dissolve in 100 ml of methanol and maintain at 20 °C for supplementary action. After this, 1000 micro litter was the standard absorbance set at 517 nm as utilized a control and afterward spread through aluminum foil for keeping in dark area for 1 day for the formation of radicals. […] The 2 ml solution of the examples were blended in with 2 ml of 2, 2-[…]-1-picryl-hydrazyl radical arrangement and saved for 15 m in obscurity zone. Following equation was utilized for the assurance of % DPPH restraint. %inhibition=A-B/A×100
A for absorbance of control and B are denoted for the absorbance of sample.
as §1

albino mice = test: Oral glucose tolerance test (OGTT); assay type: in vivo; details: for OGTT 0 minutes / OGTT 30 minutes / OGTT 60 minutes / OGTT 120 minutes: oral; for OGTT 0 minutes: 0 minutes after glucose; for OGTT 30 minutes: 30 minutes after glucose; for OGTT 60 minutes: 60 minutes after glucose; for OGTT 120 minutes: 120 minutes after glucose
Description: In this experiment, the animals treated with control and treated groups were fasted overnight. To the albino mice, […] of glucose was administered against the standard glibenclamide. After the oral administration of glucose, the level of glucose in blood was checked at time intervals of 0, 30, 60 and 120 minutes for assessment of the effect of exogenously administered glucose-D on the treated albino mice. After the experiment, the OGTT was carried out for 5 days.

[3] = system: alloxan-induced diabetic albino mice; test: In-vivo anti-diabetic study in alloxan-induced diabetic mice; details: for Decrease in Blood Glucose: 0 day to 15th day
Description: The diabetes was induced in mice by giving alloxan i.p. as per the standard protocols. A single dose of alloxan (150 mg/kg) was given to mice and were kept on fasting for next 16 hours to induce diabetes. […] The animals with random blood glucose level of more than 200 mg/dl were selected for further studies. The animals with elevated blood glucose levels were divided into six groups having five albino mice in each group. Group I was given normal saline and was negative control. Group II was given Tween 80. Group III was the positive control and was given glibenclamide. The remaining groups were given different doses of the compounds. […]

[4] = dose 31.25 μg/kg, diabetic mice
[5] = dose 0.5 (μg/kg), diabetic mice

Sequence of α-glucosidase (P53341 whole entry): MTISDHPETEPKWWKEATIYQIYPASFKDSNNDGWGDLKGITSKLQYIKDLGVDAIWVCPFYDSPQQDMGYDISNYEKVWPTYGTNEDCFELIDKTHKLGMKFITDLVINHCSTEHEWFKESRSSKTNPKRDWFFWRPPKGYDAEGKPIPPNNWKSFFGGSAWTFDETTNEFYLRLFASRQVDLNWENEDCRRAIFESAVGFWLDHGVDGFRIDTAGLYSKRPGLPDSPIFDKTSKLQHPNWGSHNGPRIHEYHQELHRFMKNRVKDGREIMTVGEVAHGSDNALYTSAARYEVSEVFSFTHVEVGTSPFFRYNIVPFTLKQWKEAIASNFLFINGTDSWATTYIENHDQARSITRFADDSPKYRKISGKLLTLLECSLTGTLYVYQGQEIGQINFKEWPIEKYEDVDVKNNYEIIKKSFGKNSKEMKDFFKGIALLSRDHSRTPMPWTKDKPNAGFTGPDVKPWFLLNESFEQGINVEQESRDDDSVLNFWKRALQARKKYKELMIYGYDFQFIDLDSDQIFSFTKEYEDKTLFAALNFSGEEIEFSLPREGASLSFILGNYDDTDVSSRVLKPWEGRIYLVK

Row | Compound | Alpha amylase Percent Inhibition (mean ± SEM) (α-amylase; 250 μg/ml) | Alpha amylase Percent Inhibition (mean ± SEM) (α-amylase; 500 μg/ml) | Alpha amylase Percent Inhibition (mean ± SEM) (α-amylase; 1000 μg/ml) | DPPH Percent Scavenging / Percent Inhibition (mean ± SEM) (DPPH antioxidant assay; 250 μg/ml) | DPPH Percent Scavenging / Percent Inhibition (mean ± SEM) (DPPH antioxidant assay; 500 μg/ml) | DPPH Percent Scavenging / Percent Inhibition (mean ± SEM) (DPPH antioxidant assay; 1000 μg/ml) | OGTT 0 minutes (albino mice) | OGTT 30 minutes (albino mice) | OGTT 60 minutes (albino mice) | OGTT 120 minutes (albino mice) | Decrease in Blood Glucose ([3]; dose 31.25 μg/kg) | Blood Glucose Level 0 day [3, 4] | Blood Glucose Level 4th day [3, 4] | Blood Glucose Level 7th day [3, 4] | Blood Glucose Level 10th day [3, 4] | Blood Glucose Level 15th day [3, 4] | Decrease in Blood Glucose ([3]; dose 250 μg/kg) | Blood Glucose Level 0 day ([3]; dose 250 μg/kg, diabetic mice) | Blood Glucose Level 4th day ([3]; dose 250 μg/kg, diabetic mice) | Blood Glucose Level 7th day ([3]; dose 250 μg/kg, diabetic mice) | other results
1 | C[C@H]1O[C@H](O[C@H]2[C@H](O)[C@@H](O)[C@@H](O[C@H]3[C@H](O)[C@@H](O)C(O)O[C@@H]3CO)O[C@@H]2CO)[C@H](O)[C@@H](O)[C@@H]1N[C@H]1C=C(CO)[C@@H](O)[C@H](O)[C@H]1O (stereo partly shown) [Acarbose] | 77.08 ± 1.04% | 82.28 ± 1.94% | 87.49 ± 0.60% | – | – | – | – | – | – | – | – | – | – | – | – | – | – | – | – | – | Percent Inhibition (mean ± SEM) (α-amylase; 250 μg/ml): 70.08 ± 1.04%; Percent Inhibition (mean ± SEM) (α-amylase; 500 μg/ml): 76.28 ± 1.94%; Percent Inhibition (mean ± SEM) (α-amylase; 1000 μg/ml): 87.49 ± 0.60%; Alpha glucosidase Percent Inhibition (mean ± SEM) (α-glucosidase): 89.50 ± 1.00% and 83.00 ± 0.00% and 77.50 ± 0.57% and 73.53 ± 0.55% and 67.63 ± 0.33%; Percent Inhibition (mean ± SEM) (α-glucosidase): 75.50 ± 1.00% and 70.00 ± 0.00% and 64.50 ± 0.57% and 56.53 ± 0.55% and 51.63 ± 0.33%
2 | O=C1O[C@H]([C@@H](O)CO)C(O)=C1O [Ascorbic acid] | – | – | – | 83.33 ± 0.88% | 87.84 ± 0.26% | 92.55 ± 0.35% | – | – | – | – | – | – | – | – | – | – | – | – | – | – | H2O2 assay IC50 [1]: 12.63 µg/mL; H2O2 assay Percent Inhibition (mean ± SEM) ([1]; 250 μg/ml): 71.56 ± 0.49%; H2O2 assay Percent Inhibition (mean ± SEM) ([1]; 500 μg/ml): 74.03 ± 0.64%; H2O2 assay Percent Inhibition (mean ± SEM) ([1]; 1000 μg/ml): 82.43 ± 0.52%; ABTS assay IC50 [2]: < 0.1 µg/mL; ABTS assay Percent Inhibition (mean ± SEM) ([2]; 250 μg/ml): 81.00 ± 1.06%; ABTS assay Percent Inhibition (mean ± SEM) ([2]; 500 μg/ml): 86.66 ± 0.66%; ABTS assay Percent Inhibition (mean ± SEM) ([2]; 1000 μg/ml): 87.83 ± 0.29%; DPPH assay Percent Inhibition (mean ± SEM) (DPPH antioxidant assay; 250 μg/ml, crude extract/solvent fractions series): 81.33 ± 0.88%; DPPH assay Percent Inhibition (mean ± SEM) (DPPH antioxidant assay; 500 μg/ml, crude extract/solvent fractions series): 87.84 ± 0.26%; DPPH assay Percent Inhibition (mean ± SEM) (DPPH antioxidant assay; 1000 μg/ml, crude extract/solvent fractions series): 92.55 ± 0.35%; DPPH assay IC50 (DPPH antioxidant assay; crude extract/solvent fractions series): < 0.1 µg/mL
3 | COc1cc(/C=C/CO)ccc1O [Comp 1, (E)-4-(3-hydroxyprop-1-en-1-yl)-2-methoxyphenol] | 74.90 ± 0.60^ns % | 79.45 ± 0.90^ns % | 85.23 ± 0.22^ns % | 80.48 ± 0.25 % | 85.43 ± 1.39 % | 89.24 ± 0.79 % | 165.6 mg/dL | 194.6 mg/dL | 211.4 mg/dL | 160.1 mg/dL | 36 mg/dL | 415 mg/dL | 407 mg/dL | 398 mg/dL | 381 mg/dL | 379 mg/dL | 205 mg/dL | 420 mg/dL | 394 mg/dL | 345 mg/dL | blood glucose (albino mice; after 120 minutes): 160 mg/dL; Blood Glucose Level 10th day ([3]; dose 250 μg/kg, diabetic mice): 217 mg/dL; Blood Glucose Level 15th day ([3]; dose 250 μg/kg, diabetic mice): 215 mg/dL; Decrease in Blood Glucose ([3]; dose 500 μg/kg): 119 mg/dL; Blood Glucose Level 0 day ([3]; dose 500 μg/kg, diabetic mice): 411 mg/dL; Blood Glucose Level 4th day ([3]; dose 500 μg/kg, diabetic mice): 387 mg/dL; Blood Glucose Level 7th day ([3]; dose 500 μg/kg, diabetic mice): 371 mg/dL; Blood Glucose Level 10th day ([3]; dose 500 μg/kg, diabetic mice): 311 mg/dL; Blood Glucose Level 15th day ([3]; dose 500 μg/kg, diabetic mice): 292 mg/dL
4 | C=CCc1cc2c(c(OC)c1OC)OCO2 [Comp 2, 6-allyl-4,5-dimethoxybenzo[d][1,3]dioxole] | 68.33 ± 0.49 % | 74.33 ± 1.20 % | 81.61 ± 1.70 % | 78.36 ± 0.84 % | 82.35 ± 0.23 % | 87.62 ± 0.58 % | 163.5 mg/dL | 189.4 mg/dL | 214.6 mg/dL | 151.6 mg/dL | 33 mg/dL | 451 mg/dL | 447 mg/dL | 430 mg/dL | 424 mg/dL | 418 mg/dL | 112 mg/dL | 467 mg/dL | 462 mg/dL | 444 mg/dL | Change in body weight [3, 4]: −6.6 gm; Blood Glucose Level 10th day ([3]; dose 250 μg/kg, diabetic mice): 408 mg/dL; Blood Glucose Level 15th day ([3]; dose 250 μg/kg, diabetic mice): 355 mg/dL; Decrease in Blood Glucose ([3]; dose 500 μg/kg): 201 mg/dL; Blood Glucose Level 0 day ([3]; dose 500 μg/kg, diabetic mice): 457 mg/dL; Blood Glucose Level 4th day ([3]; dose 500 μg/kg, diabetic mice): 403 mg/dL; Blood Glucose Level 7th day ([3]; dose 500 μg/kg, diabetic mice): 362 mg/dL; Blood Glucose Level 10th day ([3]; dose 500 μg/kg, diabetic mice): 304 mg/dL; Blood Glucose Level 15th day ([3]; dose 500 μg/kg, diabetic mice): 256 mg/dL
5 | COc1ccc(Cl)cc1C(=O)NCCc1ccc(S(=O)(=O)NC(=O)NC2CCCCC2)cc1 [Glibenclamide, reference compound] | – | – | – | – | – | – | 151.3 mg/dL | 176.5 mg/dL | 214.1 mg/dL | 140.7 mg/dL | – | – | – | – | – | – | – | – | – | – | Decrease in Blood Glucose ([3]; dose 0.5 (μg/kg)): 274 mg/dL; Blood Glucose Level 0 day [3, 5]: 472 mg/dL; Blood Glucose Level 4th day [3, 5]: 302 mg/dL; Blood Glucose Level 7th day [3, 5]: 256 mg/dL; Blood Glucose Level 10th day [3, 5]: 211 mg/dL; Blood Glucose Level 15th day [3, 5]: 198 mg/dL
